{"source": "PubChem BioAssay AID488950", "about": "(Broad Institute, 2010)", "note": "Several values for one entry are separate records, joined by “and”; a condition that tells them apart may be missing. Equal entries are not always repeated. Results filed as inconclusive are left out. Activity calls are given as the source filed them.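 Rule for the calls: active = fitted half-maximal dose for growth inhibition no higher than ten times the top tested dose; inconclusive = flat curve with 30 to 70% inhibition, or poor fit; inactive = the rest.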", "data": [{"system": "not listed separately", "test": "growth inhibition of resistant C. albicans, dose response, CaCi-8 strain, fluconazole, dry powder, set 4 (AID 488950)", "conditions": "C. albicans CaCi-8 + fluconazole, Alamar Blue growth, 48 h; at 26 µM (top of the series)", "values": [{"molecule": "COc1cccc2c(N3CCN(C(=O)c4ccc(Cl)cc4)CC3)cc(C)nc12", "activity change, negative = inhibition": "-22.9% (inactive)"}, {"molecule": "O=C(c1ccc(Cl)cc1)N1CCNCC1", "activity change, negative = inhibition": "4.63% (inactive)"}, {"molecule": "O=S(=O)(c1ccc(Cl)cc1)N1CCN(c2ccnc3cc(Cl)ccc23)CC1", "activity change, negative = inhibition": "-2.18% (inactive)"}, {"molecule": "Cc1cc(N2CCN(C(=O)c3ccc(Cl)cc3)CC2)c2ccccc2n1", "activity change, negative = inhibition": "6.54% (inactive)"}, {"molecule": "O=C(c1ccc(Cl)cc1)N1CCN(c2ccncc2)CC1", "activity change, negative = inhibition": "-2.65% (inactive)"}, {"molecule": "Clc1ccc2c(N3CCNCC3)ccnc2c1", "activity change, negative = inhibition": "7.46% (inactive)"}, {"molecule": "COc1cccnc1N1CCN(C(=O)c2ccc(Cl)cc2)CC1", "activity change, negative = inhibition": "-25% (inactive)"}, {"molecule": "O=C(c1ccc(Cl)cc1)N1CCN(c2cc(C(F)(F)F)nc3ccccc23)CC1", "activity change, negative = inhibition": "-54.5% (inactive)"}, {"molecule": "CC(C)C(=O)N1CCN(c2ccnc3cc(Cl)ccc23)CC1", "activity change, negative = inhibition": "-25.6% (inactive)"}]}, {"system": "C. albicans CaCi-8 + fluconazole, Alamar Blue growth, 48 h", "test": "growth inhibition of resistant C. albicans, dose response, CaCi-8 strain, fluconazole, dry powder, set 4 (AID 488950)", "conditions": "not given", "values": [{"molecule": "O=C(c1ccc(Cl)cc1)N1CCN(c2ccnc3cc(Cl)ccc23)CC1", "AC50": "0.179 µM and 0.6 µM"}, {"molecule": "O=C(c1ccc(Cl)cc1)N1CCN(c2ccccn2)CC1", "AC50": "9.14 µM and 13.8 µM and 19.9 µM"}]}]}
